PubChem BioAssay (NCI)
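Briefly, cells in 96-well plates were exposed to five compound concentrations for 48 h, and endpoints were estimated by linear interpolation. TGI denotes the concentration required for complete inhibition of growth.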

Assays:
Test in all cases: NCI-60 cell line screen, 48 h
[1] = test system: 786-0 renal
[2] = test system: A498 renal
[3] = test system: A549 NSCLC
[4] = test system: ACHN renal
[5] = test system: BT-549 breast
[6] = test system: CAKI-1 renal
[7] = test system: CCRF-CEM leukemia
[8] = test system: COLO 205 colon
[9] = test system: DU-145 prostate
[10] = test system: EKVX NSCLC
[11] = test system: HCC-2998 colon
[12] = test system: HCT-116 colon
[13] = test system: HCT-15 colon
[14] = test system: HL-60(TB) leukemia
[15] = test system: HOP-62 NSCLC
[16] = test system: HOP-92 NSCLC
[17] = test system: HS 578T breast
[18] = test system: HT29 colon
[19] = test system: IGROV1 ovarian
[20] = test system: K-562 leukemia
[21] = test system: KM12 colon
[22] = test system: LOX IMVI melanoma
[23] = test system: M14 melanoma
[24] = test system: MALME-3M melanoma
[25] = test system: MCF7 breast
[26] = test system: MDA-MB-231 breast
[27] = test system: MDA-MB-435
[28] = test system: MDA-N
[29] = test system: MOLT-4 leukemia
[30] = test system: NCI-H226 lung
[31] = test system: NCI-H23 lung
[32] = test system: NCI-H460 lung
[33] = test system: NCI-H522 lung
[34] = test system: NCI/ADR-RES ovarian
[35] = test system: OVCAR-3 ovarian
[36] = test system: OVCAR-4 ovarian
[37] = test system: OVCAR-5 ovarian
[38] = test system: OVCAR-8 ovarian
[39] = test system: PC-3 prostate
[40] = test system: RPMI-8226 leukemia
[41] = test system: RXF 393 renal
[42] = test system: SF-268 CNS
[43] = test system: SF-295 CNS
[44] = test system: SF-539 CNS
[45] = test system: SK-MEL-2 melanoma
[46] = test system: SK-MEL-28 melanoma
[47] = test system: SK-MEL-5 melanoma
[48] = test system: SK-OV-3 ovarian
[49] = test system: SN12C renal
[50] = test system: SNB-19 CNS
[51] = test system: SNB-75 CNS
[52] = test system: SR leukemia
[53] = test system: SW-620 colon
[54] = test system: T-47D breast
[55] = test system: TK-10 renal
[56] = test system: U251 CNS
[57] = test system: UACC-257 melanoma
[58] = test system: UACC-62 melanoma
[59] = test system: UO-31 renal

How did the TGI [1] turn out when `NC1=Nc2ccccc2Sc2nnc(-c3ccc(Cl)cc3)n21` was run?
The TGI was 82.6 µM.

What about the TGI [2] of the same molecule?
Its TGI is greater than 100 µM.

What about the TGI [3] of the same molecule?
Its TGI is greater than 100 µM.

And the TGI [4]?
The TGI was greater than 100 µM.

What about the TGI [5] of the same molecule?
Its TGI is greater than 100 µM.

And the TGI [6]?
Its TGI is greater than 100 µM.

And the TGI [7]?
The TGI was 56.2 µM.

What about the TGI [8] of the same molecule?
Its TGI is greater than 100 µM.

What about the TGI [9] of the same molecule?
Its TGI is greater than 100 µM.

What about the TGI [10] of the same molecule?
The TGI was greater than 100 µM.

And the TGI [11]?
Its TGI is greater than 100 µM.

What about the TGI [12] of the same molecule?
Its TGI is greater than 100 µM.

And the TGI [13]?
The TGI was greater than 100 µM.

And the TGI [14]?
The TGI was greater than 100 µM.

What about the TGI [15] of the same molecule?
The TGI was 85 µM.

What about the TGI [16] of the same molecule?
Its TGI is greater than 100 µM.

What about the TGI [17] of the same molecule?
Its TGI is greater than 100 µM.

What about the TGI [18] of the same molecule?
The TGI was greater than 100 µM.

And the TGI [19]?
The TGI was greater than 100 µM.

What about the TGI [20] of the same molecule?
The TGI was 35.7 µM.

And the TGI [21]?
The TGI was greater than 100 µM.

And the TGI [22]?
The TGI was greater than 100 µM.

What about the TGI [23] of the same molecule?
The TGI was greater than 100 µM.

And the TGI [24]?
Its TGI is greater than 100 µM.

And the TGI [25]?
Its TGI is greater than 100 µM.

What about the TGI [26] of the same molecule?
The TGI was 73.1 µM.

And the TGI [27]?
The TGI was greater than 100 µM.

What about the TGI [28] of the same molecule?
The TGI was greater than 100 µM.

What about the TGI [29] of the same molecule?
The TGI was 72.2 µM.

And the TGI [30]?
Its TGI is greater than 100 µM.

And the TGI [31]?
Its TGI is greater than 100 µM.

And the TGI [32]?
Its TGI is greater than 100 µM.

What about the TGI [33] of the same molecule?
Its TGI is 68.3 µM.

What about the TGI [34] of the same molecule?
The TGI was greater than 100 µM.

And the TGI [35]?
The TGI was greater than 100 µM.

What about the TGI [36] of the same molecule?
The TGI was greater than 100 µM.

And the TGI [37]?
Its TGI is greater than 100 µM.

And the TGI [38]?
Its TGI is greater than 100 µM.

What about the TGI [39] of the same molecule?
Its TGI is greater than 100 µM.

And the TGI [40]?
Its TGI is greater than 100 µM.

What about the TGI [41] of the same molecule?
The TGI was greater than 100 µM.

What about the TGI [42] of the same molecule?
Its TGI is 95.3 µM.

What about the TGI [43] of the same molecule?
Its TGI is greater than 100 µM.

And the TGI [44]?
The TGI was greater than 100 µM.

What about the TGI [45] of the same molecule?
The TGI was greater than 100 µM.

And the TGI [46]?
Its TGI is greater than 100 µM.

What about the TGI [47] of the same molecule?
Its TGI is greater than 100 µM.

And the TGI [48]?
Its TGI is greater than 100 µM.

What about the TGI [49] of the same molecule?
Its TGI is greater than 100 µM.

What about the TGI [50] of the same molecule?
The TGI was greater than 100 µM.

What about the TGI [51] of the same molecule?
The TGI was greater than 100 µM.

And the TGI [52]?
Its TGI is greater than 100 µM.

What about the TGI [53] of the same molecule?
The TGI was greater than 100 µM.

What about the TGI [54] of the same molecule?
The TGI was greater than 100 µM.

What about the TGI [55] of the same molecule?
Its TGI is greater than 100 µM.

And the TGI [56]?
Its TGI is 80.6 µM.

And the TGI [57]?
Its TGI is greater than 100 µM.

And the TGI [58]?
Its TGI is greater than 100 µM.

And the TGI [59]?
The TGI was greater than 100 µM.

What does the source list for `CCCCCCCC(=O)N/N=C/c1ccc(Sc2nccn2C)c([N+](=O)[O-])c1`?
TGI [1]: 32.4 µM; TGI [2]: 32 µM; TGI [3]: > 100 µM; TGI [4]: 75.2 µM; TGI [5]: 34.2 µM; TGI [6]: 72.1 µM; TGI [7]: 17.2 µM; TGI [8]: 27.5 µM; TGI [9]: 46.7 µM; TGI [10]: 42.8 µM; TGI [11]: 26.5 µM; TGI [12]: 28.5 µM; TGI [13]: 29.3 µM; TGI [14]: 0.772 µM; TGI [15]: 36.4 µM; TGI [16]: 15 µM; TGI [17]: 39.3 µM; TGI [18]: 23.4 µM; TGI [19]: 24.7 µM; TGI [20]: 82.6 µM; TGI [21]: 32.1 µM; TGI [22]: 22.6 µM; TGI [23]: 27.7 µM; TGI [24]: 29 µM; TGI [25]: 38.2 µM; TGI [26]: 30.1 µM; TGI [27]: 28.5 µM; TGI [28]: 32 µM; TGI [29]: 62.5 µM; TGI [30]: 32.5 µM; TGI [31]: 42.9 µM; TGI [32]: 30.5 µM; TGI [33]: 28.4 µM; TGI [34]: 48.9 µM; TGI [35]: 36.4 µM; TGI [36]: 58.3 µM; TGI [37]: 39.2 µM; TGI [38]: 37.4 µM; TGI [39]: 33.2 µM; TGI [40]: 46.7 µM; TGI [41]: 30.4 µM; TGI [42]: 32 µM; TGI [43]: 33.9 µM; TGI [44]: 34 µM; TGI [45]: 31 µM; TGI [46]: 27.3 µM; TGI [47]: 26.1 µM; TGI [48]: > 100 µM; TGI [49]: 28.9 µM; TGI [50]: 87 µM; TGI [51]: 39 µM; TGI [52]: 55.6 µM; TGI [53]: 32.8 µM; TGI [54]: 37 µM; TGI [55]: 83.2 µM; TGI [56]: 32.2 µM; TGI [57]: 26.9 µM; TGI [58]: 25.8 µM; TGI [59]: 22.7 µM
